From patent publication US20100093538A1, “Pseudomonas Bacterium” (priority 2008, published 2010)

Key:
[1] = tested on: germinating lettuce seeds; test: Lettuce seed bioassay of EtOAC extracts of cell-free culture filtrates; settings: IAA at 1 μg/ml
R. solani = type: cell-based; settings: bioautography, Si gel scraped into agar plates inoculated with R. solani

| SMILES | Effect on germination of lettuce seeds [1] | Fungal inhibition (R. solani) |
| --- | --- | --- |
| O=C(O)Cc1c[nH]c2ccccc12 [IAA, indole-3-acetic acid] | inhibits the germination of lettuce seeds | – |
| CC(=O)c1c(O)cc(O)c(C(C)=O)c1O [DAPG, 2,4-diacetylphloroglucinol] | – | Rhizoctonia |
| O=[N+]([O-])c1c(Cl)cccc1-c1c[nH]cc1Cl [PRN, 3-chloro-4-[2′ nitro-3′-chlorophenyl]pyrrole] | – | Rhizoctonia |
